Results published in US5240959A, “Aranorosinol-A and aranorosinol-B produced by Pseudoarachniotus roseus” (Hoechst Aktiengesellschaft, priority 1991, dated 1993).
Converted amounts (≈) assume the structure as drawn.

Legend:
Microsporum = assay: Minimum inhibitory concentration, Microsporum; assay type: cell-based
Text: (§1) The minimum inhibitory concentrations required to inhibit different bacteria and fungal strains by Aranorosinol-A and Aranorosinol-B are given in Table I

Klebsiella pneumoniae = assay: Minimum inhibitory concentration, Klebsiella pneumoniae; assay type: cell-based
Text: as §1

[1] = test system: Staphylococcus aureus 20240; assay: Minimum inhibitory concentration, Staphylococcus aureus 20240; assay type: cell-based
Text: as §1

Streptococcus faecalis = assay: Minimum inhibitory concentration, Streptococcus faecalis; assay type: cell-based; details: Enterococcus faecalis
Text: as §1

E. coli 9632 = assay: Minimum inhibitory concentration, E. coli 9632; assay type: cell-based; details: Escherichia coli
Text: as §1

Bacillus subtilis = assay: Minimum inhibitory concentration, Bacillus subtilis; assay type: cell-based
Text: as §1

Saccharomyces cerevisiae = assay: Minimum inhibitory concentration, Saccharomyces cerevisiae; assay type: cell-based
Text: as §1

Proteus vulgaris = assay: Minimum inhibitory concentration, Proteus vulgaris; assay type: cell-based
Text: as §1

Solubility = assay type: physicochemical
Candida albicans = assay: Minimum inhibitory concentration, Candida albicans; assay type: cell-based
Text: as §1

[2] = test system: Trichophyton mentagrophytes; assay: Minimum inhibitory concentration, Trichophyton mentagrophytes; assay type: cell-based
Text: as §1

[3] = test system: Staphylococcus aureus 209 P; assay: Minimum inhibitory concentration, Staphylococcus aureus 209 P; assay type: cell-based
Text: as §1

[4] = test system: bacteria and fungal strains; assay: Antibacterial and antifungal activity spectrum; assay type: cell-based; details: conclusion from Table I
Text: as §1

Pseudomonas aeruginosa = assay: Minimum inhibitory concentration, Pseudomonas aeruginosa; assay type: cell-based
Text: as §1

E. coli Ess 2231 = assay: Minimum inhibitory concentration, E. coli Ess 2231; assay type: cell-based; details: Escherichia coli, ESS2231
Text: as §1

Salmonella typhimurium = assay: Minimum inhibitory concentration, Salmonella typhimurium; assay type: cell-based; details: Salmonella enterica
Text: as §1

Aspergillus niger = assay: Minimum inhibitory concentration, Aspergillus niger; assay type: cell-based
Text: as §1

[5] = in dichloromethane, chloroform, acetone, methanol, diethyl ether, ethyl acetate and dimethyl sulfoxide

Row | SMILES | MIC (Microsporum) [µg/mL] | MIC (Klebsiella pneumoniae) [µg/mL] | MIC [1] [µg/mL] | MIC (Streptococcus faecalis) [µg/mL] | MIC (E. coli 9632) [µg/mL] | MIC (Bacillus subtilis) [µg/mL] | MIC (Saccharomyces cerevisiae) [µg/mL] | MIC (Proteus vulgaris) [µg/mL] | Solubility (Solubility; [5]) | Solubility (Solubility; in n-hexane, water) | MIC (Candida albicans) [µg/mL] | MIC [2] [µg/mL] | MIC [3] [µg/mL] | activity against bacteria and fungi (in words) [4] | MIC (Pseudomonas aeruginosa) [µg/mL] | MIC (E. coli Ess 2231) [µg/mL] | MIC (Salmonella typhimurium) [µg/mL] | MIC (Aspergillus niger) [µg/mL]
1 | CCCCCCC(C)/C=C(C)/C=C/C(=O)NC1CC2(OC1O)C1OC1C(O)C1OC12 (stereo not drawn) [Aranorosinol-A] | > 250 | > 250 | 31.2 (≈ 74.1 µM) | 31.2 (≈ 74.1 µM) | > 250 | 3.9 (≈ 9.25 µM) | 31.2 (≈ 74.1 µM) | > 250 | soluble | Insoluble | 62.5 (≈ 148 µM) | 62.5 (≈ 148 µM) | 15.6 (≈ 37 µM) | active against Gram-positive, Gram-negative bacteria and against yeast and filamentous fungi | > 250 | 62.5 (≈ 148 µM) | > 250 | > 250
2 | CCCCCCC(C)/C=C(C)/C=C/C(=O)NC1CC2(OC1O)C1OC1C(O)(CC(C)=O)C1OC12 (stereo not drawn) [Aranorosinol-B] | > 250 | > 250 | 15.6 (≈ 32.7 µM) | 125 (≈ 262 µM) | > 250 | 15.6 (≈ 32.7 µM) | 250 (≈ 523 µM) | > 250 | soluble | Insoluble | 250 (≈ 523 µM) | > 250 | 31.2 (≈ 65.4 µM) | active against Gram-positive bacteria only | > 250 | > 250 | > 250 | > 250
